Source: patent US7771652B2, “Combined use of an alkaline earth metal compound and a sterilizing agent to maintain osteoinduction properties of a demineralized bone matrix” (Novasterilis, Inc., priority 2008, dated 2010)

System: CFUs
Assay: Reduction in CFUs with additive-containing supercritical carbon dioxide sterilant fluid
Format: cell-based
Conditions: additive in supercritical carbon dioxide under sterilization temperature and pressure conditions
Text: It has been observed that 6-log reductions in CFUs may be achieved in accordance with the present invention by subjecting materials to be sterilized under sterilization temperature and pressure conditions using an additive-containing supercritical carbon dioxide as a sterilant fluid, wherein the additive is carbonic anhydrase. Further, this process is enhanced where the sterilant fluid is agitated during the sterilization process.

carbonic anhydrase
reductions in CFUs: 6 log
